Test results as given in patent US20250353891A1 (MEDIMMUNE LIMITED, priority 2022, published 2025).
Starred links: 1 amine or outer side, 2 acyl side, 3 side chain; linkers in the order of their positions; H or OH if unused. Non-standard residues stand in square brackets, D forms with d. Residues, ends and D or L forms follow the SMILES beside them. Groups on a side chain read outwards from the residue. *: point of attachment. Dip = N[C@H](C(=O)O)C(c1ccccc1)c1ccccc1; γGlu = O=C(O)[C@H](CCC(=O)[*:2])N[*:1]; Stearoyl = CCCCCCCCCCCCCCCCCC(=O)*; Palmitoyl = CCCCCCCCCCCCCCCC(=O)*; αMeF = C[C@](N)(Cc1ccccc1)C(=O)O; PEG4 = NCCOCCOCCOCCOCCC(=O)O; PEG2 = NCCOCCOCCC(=O)O; Aib = CC(C)(N)C(=O)O

How the values were obtained:
[1] = target: human GLP-1 receptor (hGLP-1R) (Homo sapiens, UniProt P43220); assay: cAMP production (HTRF) in CHO cells expressing hGLP-1R; assay type: cell-based; design: expressed in transfected cells; conditions: for EC50: Table 6, peptides modified at position 17, cAMP in CHO hGLP-1R cells, geometric mean, read-out: hGLP-1R EC50; for % Relative Potency Ratio: Table 6, % GLP-1R activity relative to GLP-1 / % GlucR activity relative to glucagon
Outline: (§1)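 Cells were resuspended in assay buffer at batch-optimized density, typically 1×10^5 cells/mL for hGLP-1R and 2×10^5 cells/mL for hGCGR. After 30 min incubation at room temperature with compound, cAMP was measured by two-step HTRF. EC50 values came from 4-parameter logistic fits of % Delta F.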

[2] = target: human glucagon receptor (hGCGR) (Homo sapiens, UniProt P47871); assay: cAMP production (HTRF) in CHO cells expressing hGCGR; assay type: cell-based; design: expressed in transfected cells; conditions: Table 6, peptides modified at position 17; cAMP in CHO hGCGR cells; geometric mean; read-out: hGluc-R EC50
Outline: as §1

Chain of human glucagon receptor (hGCGR) (P47871 26-477): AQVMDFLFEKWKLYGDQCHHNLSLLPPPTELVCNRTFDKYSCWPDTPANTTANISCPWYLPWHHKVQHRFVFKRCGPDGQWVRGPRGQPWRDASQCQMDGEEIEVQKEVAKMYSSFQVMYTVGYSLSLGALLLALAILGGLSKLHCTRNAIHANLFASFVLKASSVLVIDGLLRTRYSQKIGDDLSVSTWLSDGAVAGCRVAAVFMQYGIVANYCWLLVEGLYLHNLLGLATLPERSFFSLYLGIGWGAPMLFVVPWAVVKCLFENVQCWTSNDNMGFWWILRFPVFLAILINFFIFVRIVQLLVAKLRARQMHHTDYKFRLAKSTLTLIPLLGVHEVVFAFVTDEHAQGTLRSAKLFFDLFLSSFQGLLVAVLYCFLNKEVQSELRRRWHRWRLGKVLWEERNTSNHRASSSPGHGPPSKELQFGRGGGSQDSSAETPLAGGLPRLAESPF
Chain of human GLP-1 receptor (hGLP-1R) (P43220 24-463): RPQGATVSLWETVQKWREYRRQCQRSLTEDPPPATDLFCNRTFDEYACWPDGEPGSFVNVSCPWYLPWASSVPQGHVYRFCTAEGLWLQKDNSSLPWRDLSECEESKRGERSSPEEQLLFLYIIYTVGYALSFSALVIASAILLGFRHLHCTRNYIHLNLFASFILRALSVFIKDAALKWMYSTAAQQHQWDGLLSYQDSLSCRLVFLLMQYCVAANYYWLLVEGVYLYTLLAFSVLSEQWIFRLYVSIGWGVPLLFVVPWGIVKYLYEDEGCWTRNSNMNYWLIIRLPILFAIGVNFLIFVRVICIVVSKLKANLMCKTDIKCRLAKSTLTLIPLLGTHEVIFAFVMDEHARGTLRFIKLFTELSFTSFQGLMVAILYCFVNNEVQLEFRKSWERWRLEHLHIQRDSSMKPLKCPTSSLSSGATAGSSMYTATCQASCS

SMILES	EC50 [1]	% Relative Potency Ratio [1]	EC50 [2]
CCCCCCCCCCCCCCCCCC(=O)NCCOCCOCCC(=O)N[C@@H](CCC(=O)NCCOCCOCCC(=O)N[C@@H](CCC(=O)NCCCC[C@H](NC(=O)[C@H](CO)NC(=O)[C@H](CC(=O)O)NC(=O)[C@H](CC(C)C)NC(=O)[C@@H](NC(=O)[C@H](CCCCN)NC(=O)[C@H](CO)NC(=O)[C@@H](NC(=O)[C@H](CC(=O)O)NC(=O)[C@H](CO)NC(=O)[C@@H](NC(=O)[C@](C)(Cc1ccccc1)NC(=O)[C@H](CO)NC(=O)CNC(=O)[C@H](CCC(N)=O)NC(=O)[C@H](CO)NC(=O)[C@@H](N)Cc1c[nH]cn1)[C@@H](C)O)C(C)C)C(c1ccccc1)c1ccccc1)C(=O)N[C@@H](C)C(=O)N[C@@H](C)C(=O)N[C@@H](CCC(N)=O)C(=O)N[C@@H](CC(=O)O)C(=O)N[C@@](C)(Cc1ccccc1)C(=O)N[C@H](C(=O)N[C@@H](CCC(=O)O)C(=O)NC(C)(C)C(=O)N[C@H](C(=O)N[C@H](C(=O)N[C@@H](CC(N)=O)C(=O)N[C@H](C(N)=O)[C@@H](C)O)[C@@H](C)CC)[C@@H](C)CC)C(C)C)C(=O)O)C(=O)O [Peptide 60] (H-HSQGS[αMeF]TSDVSK[Dip]LDSK([γGlu-PEG2-γGlu-PEG2-Stearoyl])AAQD[αMeF]VE[Aib]IINT-NH2; N-terminus assumed)	5.16 pM	8.1	21.1 pM
CCCCCCCCCCCCCCCCCC(=O)N[C@@H](CCC(=O)NCCOCCOCCC(=O)N[C@@H](CCC(=O)NCCOCCOCCC(=O)NCCCC[C@H](NC(=O)[C@H](CO)NC(=O)[C@H](CC(=O)O)NC(=O)[C@H](CC(C)C)NC(=O)[C@@H](NC(=O)[C@H](CCCCN)NC(=O)[C@H](CO)NC(=O)[C@@H](NC(=O)[C@H](CC(=O)O)NC(=O)[C@H](CO)NC(=O)[C@@H](NC(=O)[C@](C)(Cc1ccccc1)NC(=O)[C@H](CO)NC(=O)CNC(=O)[C@H](CCC(N)=O)NC(=O)[C@H](CO)NC(=O)[C@@H](N)Cc1c[nH]cn1)[C@@H](C)O)C(C)C)C(c1ccccc1)c1ccccc1)C(=O)N[C@@H](C)C(=O)N[C@@H](C)C(=O)N[C@@H](CCC(N)=O)C(=O)N[C@@H](CC(=O)O)C(=O)N[C@@](C)(Cc1ccccc1)C(=O)N[C@H](C(=O)N[C@@H](CCC(=O)O)C(=O)NC(C)(C)C(=O)N[C@H](C(=O)N[C@H](C(=O)N[C@@H](CC(N)=O)C(=O)N[C@H](C(N)=O)[C@@H](C)O)[C@@H](C)CC)[C@@H](C)CC)C(C)C)C(=O)O)C(=O)O [Peptide 61] (H-HSQGS[αMeF]TSDVSK[Dip]LDSK([PEG2-γGlu-PEG2-γGlu-Stearoyl])AAQD[αMeF]VE[Aib]IINT-NH2; N-terminus assumed)	4.12 pM	4.6	9.55 pM
CCCCCCCCCCCCCCCC(=O)N[C@@H](CCC(=O)N[C@@H](CCC(=O)NCCOCCOCCC(=O)NCCOCCOCCC(=O)NCCCC[C@H](NC(=O)[C@H](CO)NC(=O)[C@H](CC(=O)O)NC(=O)[C@H](CC(C)C)NC(=O)[C@@H](NC(=O)[C@H](CCCCN)NC(=O)[C@H](CO)NC(=O)[C@@H](NC(=O)[C@H](CC(=O)O)NC(=O)[C@H](CO)NC(=O)[C@@H](NC(=O)[C@](C)(Cc1ccccc1)NC(=O)[C@H](CO)NC(=O)CNC(=O)[C@H](CCC(N)=O)NC(=O)[C@H](CO)NC(=O)[C@@H](N)Cc1c[nH]cn1)[C@@H](C)O)C(C)C)C(c1ccccc1)c1ccccc1)C(=O)N[C@@H](C)C(=O)N[C@@H](C)C(=O)N[C@@H](CCC(N)=O)C(=O)N[C@@H](CC(=O)O)C(=O)N[C@@](C)(Cc1ccccc1)C(=O)N[C@H](C(=O)N[C@@H](CCC(=O)O)C(=O)NC(C)(C)C(=O)N[C@H](C(=O)N[C@H](C(=O)N[C@@H](CC(N)=O)C(=O)N[C@H](C(N)=O)[C@@H](C)O)[C@@H](C)CC)[C@@H](C)CC)C(C)C)C(=O)O)C(=O)O [Peptide 64] (H-HSQGS[αMeF]TSDVSK[Dip]LDSK([PEG2-PEG2-γGlu-γGlu-Palmitoyl])AAQD[αMeF]VE[Aib]IINT-NH2; N-terminus assumed)	2.57 pM	2.4	3.06 pM
CCCCCCCCCCCCCCCC(=O)N[C@@H](CCC(=O)N[C@@H](CCC(=O)NCCOCCOCCOCCOCCC(=O)NCCCC[C@H](NC(=O)[C@H](CO)NC(=O)[C@H](CC(=O)O)NC(=O)[C@H](CC(C)C)NC(=O)[C@](C)(Cc1ccccc1)NC(=O)[C@H](CCCCN)NC(=O)[C@H](CO)NC(=O)[C@@H](NC(=O)[C@H](CC(=O)O)NC(=O)[C@H](CO)NC(=O)[C@@H](NC(=O)[C@](C)(Cc1ccccc1)NC(=O)[C@H](CO)NC(=O)CNC(=O)[C@H](CCC(N)=O)NC(=O)C(C)(C)NC(=O)[C@@H](N)Cc1c[nH]cn1)[C@@H](C)O)C(C)C)C(=O)N[C@@H](C)C(=O)N[C@@H](C)C(=O)N[C@@H](CCC(N)=O)C(=O)N[C@@H](CC(=O)O)C(=O)N[C@@](C)(Cc1ccccc1)C(=O)N[C@H](C(=O)N[C@@H](CCC(=O)O)C(=O)NC(C)(C)C(=O)N[C@@H](CC(C)C)C(=O)N[C@@H](CCC(=O)O)C(=O)N[C@@H](C)C(=O)NCC(=O)NCC(N)=O)C(C)C)C(=O)O)C(=O)O [Peptide 72] (H-H[Aib]QGS[αMeF]TSDVSK[αMeF]LDSK([PEG4-γGlu-γGlu-Palmitoyl])AAQD[αMeF]VE[Aib]LEAGG-NH2)	3.42 pM	42.6	73.7 pM

The next compounds have a lower EC50 [1] than those just listed; values first:

EC50 [1]	% Relative Potency Ratio [1]	EC50 [2]	SMILES
2.43 pM	7.7	9.49 pM	CCCCCCCCCCCCCCCC(=O)N[C@@H](CCC(=O)NCCOCCOCCC(=O)NCCOCCOCCC(=O)NCCCC[C@H](NC(=O)[C@H](CO)NC(=O)[C@H](CC(=O)O)NC(=O)[C@H](CC(C)C)NC(=O)[C@@H](NC(=O)[C@H](CCCCN)NC(=O)[C@H](CO)NC(=O)[C@@H](NC(=O)[C@H](CC(=O)O)NC(=O)[C@H](CO)NC(=O)[C@@H](NC(=O)[C@](C)(Cc1ccccc1)NC(=O)[C@H](CO)NC(=O)CNC(=O)[C@H](CCC(N)=O)NC(=O)C(C)(C)NC(=O)[C@@H](N)Cc1c[nH]cn1)[C@@H](C)O)C(C)C)C(c1ccccc1)c1ccccc1)C(=O)N[C@@H](C)C(=O)N[C@@H](C)C(=O)N[C@@H](CCC(N)=O)C(=O)N[C@@H](CC(=O)O)C(=O)N[C@@](C)(Cc1ccccc1)C(=O)N[C@H](C(=O)N[C@@H](CCC(N)=O)C(=O)NC(C)(C)C(=O)N[C@H](C(=O)N[C@@H](C)C(=O)N[C@@H](CC(N)=O)C(N)=O)[C@@H](C)CC)C(C)C)C(=O)O [Peptide 67] (H-H[Aib]QGS[αMeF]TSDVSK[Dip]LDSK([PEG2-PEG2-γGlu-Palmitoyl])AAQD[αMeF]VQ[Aib]IAN-NH2; N-terminus assumed)
1.55 pM	39.4	30.9 pM	CCCCCCCCCCCCCCCCCC(=O)N[C@@H](CCC(=O)N[C@@H](CCC(=O)NCCOCCOCCOCCOCCC(=O)NCCCC[C@H](NC(=O)[C@H](CO)NC(=O)[C@H](CC(=O)O)NC(=O)[C@H](CC(C)C)NC(=O)[C@](C)(Cc1ccccc1)NC(=O)[C@H](CCCCN)NC(=O)[C@H](CO)NC(=O)[C@@H](NC(=O)[C@H](CC(=O)O)NC(=O)[C@H](CO)NC(=O)[C@@H](NC(=O)[C@](C)(Cc1ccccc1)NC(=O)[C@H](CO)NC(=O)CNC(=O)[C@H](CCC(N)=O)NC(=O)C(C)(C)NC(=O)[C@@H](N)Cc1c[nH]cn1)[C@@H](C)O)C(C)C)C(=O)N[C@@H](CCCNC(=N)N)C(=O)N[C@@H](C)C(=O)N[C@@H](CCC(N)=O)C(=O)N[C@@H](CC(=O)O)C(=O)N[C@@](C)(Cc1ccccc1)C(=O)N[C@H](C(=O)N[C@@H](CCC(=O)O)C(=O)NC(C)(C)C(=O)N[C@@H](CC(C)C)C(=O)N[C@@H](CCC(=O)O)C(=O)N[C@@H](C)C(=O)NCC(=O)NCC(N)=O)C(C)C)C(=O)O)C(=O)O [Peptide 70] (H-H[Aib]QGS[αMeF]TSDVSK[αMeF]LDSK([PEG4-γGlu-γGlu-Stearoyl])RAQD[αMeF]VE[Aib]LEAGG-NH2)
1.52 pM	8.3	6.43 pM	CCCCCCCCCCCCCCCCCC(=O)N[C@@H](CCC(=O)N[C@@H](CCC(=O)NCCOCCOCCC(=O)NCCOCCOCCC(=O)NCCCC[C@H](NC(=O)[C@H](CO)NC(=O)[C@H](CC(=O)O)NC(=O)[C@H](CC(C)C)NC(=O)[C@@H](NC(=O)[C@H](CCCCN)NC(=O)[C@H](CO)NC(=O)[C@@H](NC(=O)[C@H](CC(=O)O)NC(=O)[C@H](CO)NC(=O)[C@@H](NC(=O)[C@](C)(Cc1ccccc1)NC(=O)[C@H](CO)NC(=O)CNC(=O)[C@H](CCC(N)=O)NC(=O)C(C)(C)NC(=O)[C@@H](N)Cc1c[nH]cn1)[C@@H](C)O)C(C)C)C(c1ccccc1)c1ccccc1)C(=O)N[C@@H](C)C(=O)N[C@@H](C)C(=O)N[C@@H](CCC(N)=O)C(=O)N[C@@H](CC(=O)O)C(=O)N[C@@](C)(Cc1ccccc1)C(=O)N[C@H](C(=O)N[C@@H](CCC(N)=O)C(=O)NC(C)(C)C(=O)N[C@H](C(=O)N[C@@H](C)C(=O)N[C@@H](CC(N)=O)C(N)=O)[C@@H](C)CC)C(C)C)C(=O)O)C(=O)O [Peptide 66] (H-H[Aib]QGS[αMeF]TSDVSK[Dip]LDSK([PEG2-PEG2-γGlu-γGlu-Stearoyl])AAQD[αMeF]VQ[Aib]IAN-NH2; N-terminus assumed)
